Data: ChEMBL document CHEMBL1201862, “PubChem BioAssay data set” (2004)
The source made the active and inactive calls. Cut-off read from the data, not from the text of the source, for most assays here: actives have a measured EC50 and inactives only a lower limit.

Key:
[1] = system: Streptococcus sp. 'group A'; assay: Streptococcus pyogenes SK(-)GAS viability under kanamycin – luminescence, BacTiterGlo, confirmation, counter-screen for streptokinase expression inhibitor project, dose response (AID 1900); format: functional, organism-based
Streptokinase A = biological target: T1, Streptokinase A (Streptococcus pyogenes serotype M1, UniProt P10520); assay: viability-normalized secreted streptokinase activity reduction – plasminogen activation absorbance, OD405, dose response (AID 1914); format: functional, Streptococcus pyogenes M1 GAS;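 note: secreted streptokinase activity via plasminogen activation per viability signal from cell pellet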
T1 sequence (P10520 whole entry): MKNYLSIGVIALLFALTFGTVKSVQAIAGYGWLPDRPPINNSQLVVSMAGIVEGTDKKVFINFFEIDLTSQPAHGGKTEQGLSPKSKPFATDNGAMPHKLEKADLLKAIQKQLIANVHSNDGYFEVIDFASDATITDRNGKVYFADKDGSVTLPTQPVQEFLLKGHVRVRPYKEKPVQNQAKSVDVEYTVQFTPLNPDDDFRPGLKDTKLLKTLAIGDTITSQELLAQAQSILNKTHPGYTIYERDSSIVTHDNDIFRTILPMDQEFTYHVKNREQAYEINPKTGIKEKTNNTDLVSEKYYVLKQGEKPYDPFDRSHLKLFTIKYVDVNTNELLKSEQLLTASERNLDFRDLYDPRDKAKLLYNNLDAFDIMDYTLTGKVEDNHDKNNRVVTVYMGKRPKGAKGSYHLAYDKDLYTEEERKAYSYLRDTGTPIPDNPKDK

Streptococcus = assay: GAS UMAA2166 growth inhibition – luminescence, BacTiterGlo, counter-screen for streptokinase expression inhibitor project, dose response (AID 1915); format: functional, organism-based;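 note: potency for reduction of bacterial viability or growth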
[2] = Luminescence Cell-Based Dose Retest to Confirm Inhibitors of Cancer Stem Cells. [Related pubchem assays (depositor defined):AID2717, AID2721]; format: functional; conditions: Homo sapiens
CHO = CHO cell viability loss, potency – luminescence, cytotoxicity control for TLR9-MyD88 binding inhibitor project, dose response (AID 588339); format: functional, cell-based, hamster; conditions: Cricetulus griseus;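 note: CHO cells stably coexpressing TLR9 and MyD88 fusions from primary screen; compound exposure lasted 48 hours before viability readout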
[3] = biological target: T2, Replicative DNA helicase DnaB (Mycobacterium tuberculosis, UniProt P9WMR3); assay: DnaB intein splicing inhibitors, dose response, biochemical, cell-free fluorescence (AID 449749); format: functional
T2 sequence (P9WMR3 whole entry): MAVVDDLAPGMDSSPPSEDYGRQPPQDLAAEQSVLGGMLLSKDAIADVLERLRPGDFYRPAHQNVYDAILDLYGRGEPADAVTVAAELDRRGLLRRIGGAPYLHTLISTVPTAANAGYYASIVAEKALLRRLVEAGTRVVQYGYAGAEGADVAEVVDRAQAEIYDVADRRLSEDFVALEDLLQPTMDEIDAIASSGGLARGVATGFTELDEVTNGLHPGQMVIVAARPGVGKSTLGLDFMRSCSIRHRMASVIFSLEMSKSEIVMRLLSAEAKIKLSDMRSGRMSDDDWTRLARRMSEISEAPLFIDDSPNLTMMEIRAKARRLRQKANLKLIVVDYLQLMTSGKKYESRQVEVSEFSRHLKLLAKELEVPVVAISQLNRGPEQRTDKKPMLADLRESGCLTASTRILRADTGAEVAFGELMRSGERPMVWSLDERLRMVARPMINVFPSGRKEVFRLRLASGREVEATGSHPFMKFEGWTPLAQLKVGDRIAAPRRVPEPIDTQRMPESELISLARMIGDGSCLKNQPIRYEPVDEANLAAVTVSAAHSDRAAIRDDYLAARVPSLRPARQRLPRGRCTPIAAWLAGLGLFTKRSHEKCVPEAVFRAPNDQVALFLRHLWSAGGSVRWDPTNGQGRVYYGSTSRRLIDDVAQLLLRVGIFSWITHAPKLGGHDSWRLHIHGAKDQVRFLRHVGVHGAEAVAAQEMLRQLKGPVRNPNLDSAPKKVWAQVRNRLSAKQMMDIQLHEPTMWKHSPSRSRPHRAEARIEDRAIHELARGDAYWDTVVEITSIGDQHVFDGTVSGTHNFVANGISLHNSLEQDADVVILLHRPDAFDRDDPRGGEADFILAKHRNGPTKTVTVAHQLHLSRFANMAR

Protein RecA = biological target: T3, Protein RecA (Mycobacterium tuberculosis, UniProt P9WHJ3); assay: Fluorescence Cell-Free Homogeneous Dose Retest to Identify Inhibitors of RecA-Intein Splicing Activity. [Related pubchem assays (depositor defined):AID2097, AID2223, AID489010, AID492950]; format: functional
T3 sequence (P9WHJ3 whole entry): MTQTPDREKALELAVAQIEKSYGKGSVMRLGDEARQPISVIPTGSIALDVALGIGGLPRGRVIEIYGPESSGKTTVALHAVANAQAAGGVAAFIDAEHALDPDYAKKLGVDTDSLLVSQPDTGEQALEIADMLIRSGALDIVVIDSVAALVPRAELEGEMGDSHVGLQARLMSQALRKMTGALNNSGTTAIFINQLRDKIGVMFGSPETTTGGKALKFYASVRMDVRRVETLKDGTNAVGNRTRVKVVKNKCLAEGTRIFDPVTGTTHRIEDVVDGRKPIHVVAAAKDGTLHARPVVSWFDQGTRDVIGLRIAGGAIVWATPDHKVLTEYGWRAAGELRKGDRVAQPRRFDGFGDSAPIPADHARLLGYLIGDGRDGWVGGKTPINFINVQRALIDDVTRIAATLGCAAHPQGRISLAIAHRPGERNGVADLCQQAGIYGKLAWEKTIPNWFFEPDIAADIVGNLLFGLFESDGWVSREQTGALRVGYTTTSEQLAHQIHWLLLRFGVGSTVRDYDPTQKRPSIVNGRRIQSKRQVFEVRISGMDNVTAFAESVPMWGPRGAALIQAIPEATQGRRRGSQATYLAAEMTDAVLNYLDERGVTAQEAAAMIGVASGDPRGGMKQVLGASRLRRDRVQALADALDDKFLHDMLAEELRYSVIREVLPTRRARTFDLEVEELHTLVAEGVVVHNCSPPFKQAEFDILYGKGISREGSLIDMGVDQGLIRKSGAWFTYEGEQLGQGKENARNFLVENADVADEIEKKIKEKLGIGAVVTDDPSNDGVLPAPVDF

[4] = reduction of Shn3 3'UTR-driven luciferase in osteoblasts – cell-based, Clone20 osteoblasts, firefly luciferase, cherry-picked, dose response (AID 624132); format: functional;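 note: firefly luciferase luminescence from reporter carrying the Shn3 3'UTR in osteoblasts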
[5] = loss of viability in HepG2 cells – cell-based, CellTiter-Glo, cherry-picked, cytotoxicity control for Shn3 inhibitor project, dose response (AID 624134); format: functional
[6] = non-specific 3'UTR reporter inhibition in Clone20-Shn3RL – cell-based, Renilla luciferase, cherry-picked, counter-screen for Shn3 inhibitor project, dose response (AID 624133); format: functional
[7] = biological target: ATP-binding cassette sub-family B member 6 (Homo sapiens, UniProt Q9NP58); assay: ABCB6 transporter inhibitors, porphyrin accumulation, dose response, flow cytometry, K562-ABCB6 cells, cherry pick 02 (AID 624487); format: functional; conditions: read-out: EC50_MICROM
[8] = Luminescence Cell-Based Dose Confirmation HTS to Identify Activators of 5'UTR Stem-Loop Driven Alpha-Synuclein mRNA Translation in H4 Neuroglioblastoma Cells. [Related pubchem assays: 1829 (Project Summary), 1814 (Primary HTS)]; format: functional
[9] = Luminescence Cell-Based Dose Response HTS to Identify Activators of Luciferase Translation or Activity in H4 […] Cells. [Related pubchem assays: 1829 (Project Summary), 1814 (Primary HTS)]; format: functional
BJ [10] = assay: BJ-TERT fibroblast viability loss – cell-based, RAS-independent, luminescence, dose response (AID 1933); format: functional; conditions: Homo sapiens
H4 = assay: Luminescence Cell-Based Dose Response HTS to Identify Activators of 5'UTR Stem-Loop Driven Prion Protein mRNA Translation in H4 Neuroglioblastoma Cells. [Related pubchem assays: 1829 (Project Summary), 1814 (Primary HTS)]; format: functional; conditions: Homo sapiens
BJ [11] = assay: cells; format: functional, cell-based; conditions: Homo sapiens
BJ [12] = assay: BJ-TERT-LT-ST fibroblast viability loss – cell-based, RAS-independent, luminescence, dose response (AID 1935); format: functional; conditions: Homo sapiens;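 note: BJ fibroblasts immortalized with TERT plus LT and ST oncogenes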
[13] = DRD fibroblast viability loss – cell-based, non-viral oncogenic, luminescence, dose response (AID 1934); format: functional; conditions: Homo sapiens
BJ [14] = assay: growth inhibition of engineered Ras-driven BJ cells – cell-based, alamar blue fluorescence, cherrypicked samples, dose response (AID 2631); format: functional; conditions: Homo sapiens;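 note: confirmatory dose-response assay in RAS-dependent BJ fibroblasts engineered with TERT, LT and ST, with cytotoxicity read by fluorescence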
Vero = assay: cells; format: functional; conditions: Chlorocebus sabaeus
Hexokinase-1 = biological target: T4, Hexokinase-1 (Homo sapiens, UniProt P19367); assay: hexokinase 1 activity inhibitors, potency – biochemical, set 2, resazurin fluorescence coupled readout, selectivity assay for HKDC1 inhibitor project, SAR follow-up (AID 588356); format: functional
T4 sequence (P19367 whole entry): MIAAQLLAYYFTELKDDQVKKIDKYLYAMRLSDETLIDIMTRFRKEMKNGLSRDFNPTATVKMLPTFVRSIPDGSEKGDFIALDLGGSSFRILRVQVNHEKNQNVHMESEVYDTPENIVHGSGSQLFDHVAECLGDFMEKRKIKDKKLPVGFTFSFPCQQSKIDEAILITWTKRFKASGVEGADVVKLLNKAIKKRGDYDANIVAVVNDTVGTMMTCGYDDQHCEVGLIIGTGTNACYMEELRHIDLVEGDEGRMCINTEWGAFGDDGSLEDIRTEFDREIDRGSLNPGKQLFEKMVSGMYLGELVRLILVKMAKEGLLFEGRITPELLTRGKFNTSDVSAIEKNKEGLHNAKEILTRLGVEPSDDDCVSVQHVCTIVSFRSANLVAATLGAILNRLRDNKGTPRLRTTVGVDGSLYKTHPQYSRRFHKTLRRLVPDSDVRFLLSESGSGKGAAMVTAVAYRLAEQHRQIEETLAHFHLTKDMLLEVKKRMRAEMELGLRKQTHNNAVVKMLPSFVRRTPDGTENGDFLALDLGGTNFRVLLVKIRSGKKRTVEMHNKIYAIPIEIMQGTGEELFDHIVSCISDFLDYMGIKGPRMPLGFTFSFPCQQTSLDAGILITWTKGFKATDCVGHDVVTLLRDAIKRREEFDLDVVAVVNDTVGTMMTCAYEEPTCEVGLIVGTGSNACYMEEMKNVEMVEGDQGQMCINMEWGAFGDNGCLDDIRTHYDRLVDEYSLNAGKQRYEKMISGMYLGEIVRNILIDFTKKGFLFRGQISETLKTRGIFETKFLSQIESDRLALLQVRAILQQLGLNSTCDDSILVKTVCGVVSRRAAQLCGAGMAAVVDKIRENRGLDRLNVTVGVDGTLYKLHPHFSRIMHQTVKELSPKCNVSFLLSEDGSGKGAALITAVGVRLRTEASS

Hexokinase HKDC1 = biological target: T5, Hexokinase HKDC1 (Homo sapiens, UniProt Q2TB90); assay: analog inhibition of human HKDC1 activity – biochemical, set 2, SAR follow-up (AID 588355); format: functional
T5 sequence (Q2TB90 whole entry): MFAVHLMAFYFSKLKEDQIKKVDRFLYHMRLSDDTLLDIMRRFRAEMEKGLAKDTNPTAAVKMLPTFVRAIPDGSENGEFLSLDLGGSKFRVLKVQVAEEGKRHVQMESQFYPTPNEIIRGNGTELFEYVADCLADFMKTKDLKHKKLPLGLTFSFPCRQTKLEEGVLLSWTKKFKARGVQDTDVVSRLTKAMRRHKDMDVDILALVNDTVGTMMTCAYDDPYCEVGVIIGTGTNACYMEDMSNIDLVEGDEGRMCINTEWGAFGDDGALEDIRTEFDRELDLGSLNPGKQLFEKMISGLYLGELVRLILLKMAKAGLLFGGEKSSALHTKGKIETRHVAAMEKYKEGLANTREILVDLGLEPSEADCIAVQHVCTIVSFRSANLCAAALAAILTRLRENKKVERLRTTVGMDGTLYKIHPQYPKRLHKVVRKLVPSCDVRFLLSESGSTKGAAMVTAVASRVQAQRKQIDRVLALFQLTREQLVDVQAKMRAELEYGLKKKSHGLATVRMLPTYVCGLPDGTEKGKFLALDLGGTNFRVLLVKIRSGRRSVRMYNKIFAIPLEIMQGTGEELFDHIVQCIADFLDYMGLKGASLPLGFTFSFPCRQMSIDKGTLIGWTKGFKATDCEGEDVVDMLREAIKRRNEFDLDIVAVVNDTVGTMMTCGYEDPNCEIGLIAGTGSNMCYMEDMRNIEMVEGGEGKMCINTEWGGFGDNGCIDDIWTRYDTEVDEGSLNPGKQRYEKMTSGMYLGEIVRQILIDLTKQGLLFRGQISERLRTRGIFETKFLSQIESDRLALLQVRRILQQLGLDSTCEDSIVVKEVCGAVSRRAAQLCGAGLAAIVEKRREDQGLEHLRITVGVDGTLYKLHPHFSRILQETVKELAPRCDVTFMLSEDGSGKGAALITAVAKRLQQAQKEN

ATP-binding cassette sub-family B member 6, sequence (Q9NP58 whole entry): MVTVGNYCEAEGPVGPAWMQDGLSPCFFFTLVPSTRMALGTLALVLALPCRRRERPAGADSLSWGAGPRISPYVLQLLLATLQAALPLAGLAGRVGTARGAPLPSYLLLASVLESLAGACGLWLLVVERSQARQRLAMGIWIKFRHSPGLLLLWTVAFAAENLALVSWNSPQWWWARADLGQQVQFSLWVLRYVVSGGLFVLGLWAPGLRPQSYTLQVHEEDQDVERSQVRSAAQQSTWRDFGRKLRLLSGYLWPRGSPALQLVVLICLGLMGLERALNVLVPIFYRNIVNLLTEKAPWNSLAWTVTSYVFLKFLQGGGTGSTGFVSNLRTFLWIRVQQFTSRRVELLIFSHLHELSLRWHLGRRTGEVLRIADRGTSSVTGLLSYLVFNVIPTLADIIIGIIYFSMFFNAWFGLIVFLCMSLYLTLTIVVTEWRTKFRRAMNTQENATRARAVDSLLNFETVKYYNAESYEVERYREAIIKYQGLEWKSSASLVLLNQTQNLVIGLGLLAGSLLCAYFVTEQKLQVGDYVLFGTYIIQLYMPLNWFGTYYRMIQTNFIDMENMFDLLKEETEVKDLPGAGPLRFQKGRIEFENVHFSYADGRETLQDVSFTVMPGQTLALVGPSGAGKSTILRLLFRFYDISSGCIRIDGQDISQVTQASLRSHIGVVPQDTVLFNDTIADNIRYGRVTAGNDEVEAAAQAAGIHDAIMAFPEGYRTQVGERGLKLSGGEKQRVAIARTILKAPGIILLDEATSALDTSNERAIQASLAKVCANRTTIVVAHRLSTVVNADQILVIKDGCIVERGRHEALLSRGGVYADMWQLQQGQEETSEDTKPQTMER

## Cc1ccc(NC(=O)c2nc(S(=O)(=O)Cc3ccccc3C)ncc2Cl)cc1C
[1]
  EC50: 9.97 µM (active)
Streptokinase A
  EC50: 1.32 µM (active)
Streptococcus
  EC50: 22.2 µM (inconclusive)
[2]
  AC50: 2.01 µM (active)
CHO
  IC50: 5.02 µM (active)
[3]
  AC50: > 380 µM (inconclusive)
Protein RecA
  EC50: 1.31 µM (active)
[4]
  AC50: 0.486 µM (active)
[5]
  AC50: 30.8 µM (active)
[6]
  AC50: 8.07 µM (active)
[7]
  EC50: 20.5 µM (active)

## CN1CCN(C(=O)CCCN2C(=O)/C(=C/c3cccc(Br)c3)SC2=S)CC1
[8]
  EC50: 13.9 µM (active)
[9]
  EC50: > 120 µM (not active)
BJ [10]
  EC50: 1.93 µM (active)
H4
  EC50: > 120 µM (not active)
BJ [11]
  EC50: > 150 µM (inconclusive)
BJ [12]
  EC50: > 150 µM (inconclusive)
[13]
  EC50: 4.36 µM (active)
BJ [14]
  EC50: > 66.7 µM (inactive)
Vero
  CC50: > 25 µM (active)

## COc1cc2c(cc1OC)-c1cc(Nc3cccc4ccccc34)nc(=O)n1CC2
Hexokinase-1
  IC50: > 80 µM (inactive)
Hexokinase HKDC1
  IC50: > 80 µM (inactive)
